Assay results from PMC11148080, “Ru(II)-based complexes containing 2-thiouracil derivatives suppress liver cancer stem cells by targeting NF-κB and Akt/mTOR signaling” (Cell Death Discovery, 2024).

Tests used:
HepG2 cells [1] = assay: Mitochondrial transmembrane potential (rhodamine 123); type: cell-based, human; settings: HepG2, 24 h
Procedure: For apoptosis detection, cell viability was quantified using Annexin V-FITC/PI (FITC Annexin V Apoptosis Detection Kit I, BD Biosciences, San Jose, CA, USA) according to the manufacturer’s instructions. The cells were also stained with rhodamine 123 (5 μg/mL, Sigma Aldrich Co.) for 15 min at 37 °C in the dark to assess the mitochondrial transmembrane potential. After the cells were washed, they were incubated in saline for 30 min in the dark at 37 °C and analyzed by flow cytometry.

HepG2 cells [2] = assay: Transwell migration assay; type: cell-based, human; settings: same concentrations (0.5 μM complex 1, 0.3 μM complex 2), 24 h
Procedure: Transwell plates were used for the cell migration assay, as previously described. The cells were initially incubated in serum-free media for 24 h. We used uncoated cell culture inserts in 6-well plates ([…]; Corning, USA). The upper chamber received 1.5 mL of serum-free medium, whereas the bottom chamber received 2 mL of medium containing 20% FBS. Cotton swabs were used to remove cells that remained in the top chamber after 24 h. The cells on the bottom surface of the membrane were fixed in 4% paraformaldehyde and stained with 0.5% crystal violet. The cells were imaged and counted using an optical microscope (Leica, DMI8).

HepG2 cells [3] = assay: Wound healing assay; type: cell-based, human; settings: 72 h; 0.5 μM complex 1, 0.3 μM complex 2 (noncytotoxic)
Procedure: Wound healing assays were performed as previously described. The cells were grown to 80–90% confluency in 12-well plates, and a wound was formed by dragging a plastic pipette tip over the cell surface. The remaining cells were washed three times with saline solution to eliminate cell debris before being cultured in serum-free media and treated with drugs. After 0 and 72 h of incubation, the migrating cells in front of the wound were photographed using an optical microscope (Nikon, TS 100). The wound area was calculated using ImageJ software from the National Institutes of Health (NIH, USA).

WT SV40 MEF = assay: Alamar Blue survival curves; type: cell-based, mouse; settings: 72 h
Procedure: (§1) A Quantification of mitochondrial membrane depolarization in HepG2 cells after 24 h of incubation with complex 1 or 2, as determined by flow cytometry. B and C Quantification of PARP (Asp214) cleavage in HepG2 cells after 24 h of incubation with complex 1 (8 μM) or 2 (6 μM), as determined by flow cytometric analysis. MFI: Mean fluorescence intensity. D Survival curves of WT SV40 MEFs and BAD KO SV40 MEFs upon treatment with complexes 1 and 2 and 5-fluorouracil (5-FU, used as a positive control). The curves were obtained from at least three biological replicates carried out in duplicate using the Alamar Blue assay after 72 h of incubation. E DNA fragmentation (sub-G0/G1 cells) and cell cycle distribution (G0/G1, S and G2/M phases) of WT SV40 MEFs and BAD KO SV40 MEFs after 48 h of incubation with complexes 1 (10 μM) and 2 (10 μM) or 5-FU (40 μM). The vehicle (0.2% DMSO) was used as a negative control (CTL). The data are expressed as the mean ± S.E.M. of three biological replicates carried out in duplicate. *P < 0.05 compared to CTL by one-way analysis of variance (ANOVA) followed by Dunnett’s multiple comparisons test.
(§2) The Alamar Blue assay was used to measure cell viability, as previously described. Adherent cells were seeded in 96-well plates at a density of 7 × 10^3 cells per well, and suspended cells were seeded at 3 × 10^4 cells per well. Drugs were added to each well after overnight incubation for adherent cells or immediately after seeding for suspension cells, and incubation continued for an additional 72 h. […] Four hours (for cell lines) or 24 h (for primary cultures) before the end of incubation, 20 μL of resazurin (30 μM) (Sigma‒Aldrich Co. St. Louis, MO, USA) was added to each well. The absorbance at 570 and 600 nm was measured using a SpectraMax 190 microplate reader (Molecular Devices, Sunnyvale, CA, USA).

BAD KO SV40 MEF = assay: Alamar Blue survival curves; type: cell-based, mouse; settings: for involvement of proapoptotic protein BAD in cell death: BAD KO SV40 MEF vs WT SV40 MEF; for IC50: BAD KO SV40 MEF, 72 h
Procedure: as §1, §2

HepG2 cells [4] = assay: Colony-forming assay; type: cell-based, human; settings: concentration- and time-dependent; 24, 48, 72 h treatment
Procedure: A total of 500 cells were plated in 6-well plates with 4 mL of complete medium and treated with the drugs for 24, 48, or 72 h to determine clonogenic potential. The medium was subsequently replaced with fresh drug-free medium, and the plates were cultivated for 14 days. After that, the cells were fixed in methanol and stained with 0.5% crystal violet. Using an optical microscope (Nikon, TS100), the number of colonies with >50 cells was counted.

[5] = Toxicity parameters in xenografted mice; type: in vivo, C.B-17 SCID mice; settings: 2 or 4 mg/kg i.p., 21 days; for changes in body weight or organs (liver, kidney, lung, heart): P > 0.05; for histopathological changes in the hearts: data not shown
Source text: All animals were weighed at the start and end of the experiment to assess toxicological aspects. The animals were continuously examined for anomalies during the trial. The livers, kidneys, lungs, and hearts were removed and weighed before being preserved in 4% formaldehyde, dehydrated in a graded alcohol series, cleaned in xylene, and embedded in paraffin wax. The tissue was sliced into 5 μm thick slices, stained with hematoxylin and/or periodic acid-Schiff (liver and kidney), and histologically evaluated via optical microscopy.

HepG2 tumorspheres = assay: HepG2 tumorspheres; type: cell-based, human; settings: for HepG2 tumorsphere growth: 3D tumorspheres; for cell death in HepG2 tumorspheres (AO/PI): 48 h, 10 μM complex 1, 5 μM complex 2
Procedure: HepG2 cells were seeded at a low cell density (1000 cells/well in 2 mL) in 24-well low-adhesion plates (Corning, USA) using serum-free DMEM-F12 supplemented with 20 ng/mL EGF (PeproTech, USA), 20 ng/mL bFGF (PeproTech, USA), and B27 supplement (Invitrogen, Carlsbad, CA, USA). After 5 days of incubation (to allow spheroid formation), the cells were treated with 20, 10, 5, 2.5 or 1.25 µM of each complex. The cells were photographed after 0, 24, and 48 h of treatment using an optical microscope (Leica, DMI8). In a new set of experiments, cells were treated with 10 µM complex 1 or 5 µM complex 2 for 48 h, stained with acridine orange (1 μg/mL) plus PI (1 μg/mL) and analyzed by a Leica TCS SP8 confocal microscope (Leica Microsystems, Wetzlar, HE, Germany).

HepG2 cells [6] = assay: Trypan blue exclusion assay; type: cell-based, human; settings: HepG2, 72 h
Procedure: The number of viable cells (unstained cells) and nonviable cells (trypan blue-stained cells) was counted by the trypan blue exclusion test. Briefly, 90 μL of cell suspension was selected, and 10 μL of trypan blue (0.4%) was added. A hemocytometer was used to fill the aliquot of the homogenized cell suspension, and the cells were counted under a light microscope.

Cc1cc(=O)nc([S][Ru+])[nH]1.F[P-](F)(F)(F)(F)F.c1ccc(-c2ccccn2)nc1.c1ccc(P(c2ccccc2)c2ccccc2)cc1.c1ccc(P(c2ccccc2)c2ccccc2)cc1 [Complex 2, trans-[Ru(6m2TU)(PPh3)2(bipy)]PF6]
mitochondrial depolarization (HepG2 cells [1]): Significant mitochondrial depolarization | motility, transwell cell migration (HepG2 cells [2]): reduced motility | HepG2 cell migration, wound healing (HepG2 cells [3]): reduced | IC50 (WT SV40 MEF): 5.1 µM | involvement of proapoptotic protein BAD in cell death (BAD KO SV40 MEF): independent of the protein BAD | IC50 (BAD KO SV40 MEF): 4.1 µM | clonogenic viability of HepG2 cells (HepG2 cells [4]): significantly decreased | histopathological alterations of kidneys, livers, lungs [5]: minor and/or reversible | changes in body weight or organs (liver, kidney, lung, heart) [5]: No significant changes | histopathological changes in the hearts [5]: No significant changes | HepG2 tumorsphere growth (HepG2 tumorspheres): reduced | cell death in HepG2 tumorspheres (AO/PI) (HepG2 tumorspheres): caused cell death | reduction of cell viability (HepG2 cells [6]; 1.5 µM): 39.4% | reduction of cell viability (HepG2 cells [6]; 3 µM): 61.4% | reduction of cell viability (HepG2 cells [6]; 6 µM): 93.5%

F[P-](F)(F)(F)(F)F.O=c1cc[nH]c([S][Ru+])n1.c1ccc(-c2ccccn2)nc1.c1ccc(P(c2ccccc2)c2ccccc2)cc1.c1ccc(P(c2ccccc2)c2ccccc2)cc1 [Complex 1, trans-[Ru(2TU)(PPh3)2(bipy)]PF6]
mitochondrial depolarization (HepG2 cells [1]): Significant mitochondrial depolarization | motility, transwell cell migration (HepG2 cells [2]): reduced motility | HepG2 cell migration, wound healing (HepG2 cells [3]): reduced | IC50 (WT SV40 MEF): 5.4 µM | involvement of proapoptotic protein BAD in cell death (BAD KO SV40 MEF): independent of the protein BAD | IC50 (BAD KO SV40 MEF): 4.6 µM | clonogenic viability of HepG2 cells (HepG2 cells [4]): significantly decreased | histopathological alterations of kidneys, livers, lungs [5]: minor and/or reversible | changes in body weight or organs (liver, kidney, lung, heart) [5]: No significant changes | histopathological changes in the hearts [5]: No significant changes | HepG2 tumorsphere growth (HepG2 tumorspheres): reduced | cell death in HepG2 tumorspheres (AO/PI) (HepG2 tumorspheres): caused cell death | reduction of cell viability (HepG2 cells [6]; 2 µM): 46.5% | reduction of cell viability (HepG2 cells [6]; 4 µM): 72.2% | reduction of cell viability (HepG2 cells [6]; 8 µM): 95.8%
